# Key:
# [1] = biological target: T1, NOX1 (Homo sapiens, UniProt Q9Y5S8); assay: Amplex Red/HRP ROS production assay on membranes of NOX1-overexpressing cells, concentration-response; format: biochemical
# T1 construct: membranes prepared from cells specifically overexpressing the human NOX isoform
# T1 sequence (Q9Y5S8 1-564): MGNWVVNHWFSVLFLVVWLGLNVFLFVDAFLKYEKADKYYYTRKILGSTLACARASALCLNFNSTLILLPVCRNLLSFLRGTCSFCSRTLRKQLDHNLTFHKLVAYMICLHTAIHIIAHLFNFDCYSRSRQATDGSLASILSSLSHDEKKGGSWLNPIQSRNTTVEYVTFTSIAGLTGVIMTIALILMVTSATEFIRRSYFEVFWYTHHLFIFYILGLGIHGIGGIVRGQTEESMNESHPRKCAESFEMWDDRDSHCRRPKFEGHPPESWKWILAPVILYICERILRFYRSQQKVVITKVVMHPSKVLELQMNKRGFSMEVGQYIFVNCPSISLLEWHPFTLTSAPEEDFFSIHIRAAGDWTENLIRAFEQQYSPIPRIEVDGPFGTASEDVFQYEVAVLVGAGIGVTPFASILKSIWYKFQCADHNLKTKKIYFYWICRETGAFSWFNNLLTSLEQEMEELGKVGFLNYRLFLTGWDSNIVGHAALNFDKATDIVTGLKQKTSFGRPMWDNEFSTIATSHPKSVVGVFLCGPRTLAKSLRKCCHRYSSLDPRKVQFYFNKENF
# [2] = biological target: T2, NOX4 (Homo sapiens, UniProt Q9NPH5); assay: Amplex Red/HRP ROS production assay on membranes of NOX4-overexpressing cells, concentration-response; format: biochemical
# T2 construct: membranes prepared from cells specifically overexpressing the human NOX isoform
# T2 sequence (Q9NPH5 1-578): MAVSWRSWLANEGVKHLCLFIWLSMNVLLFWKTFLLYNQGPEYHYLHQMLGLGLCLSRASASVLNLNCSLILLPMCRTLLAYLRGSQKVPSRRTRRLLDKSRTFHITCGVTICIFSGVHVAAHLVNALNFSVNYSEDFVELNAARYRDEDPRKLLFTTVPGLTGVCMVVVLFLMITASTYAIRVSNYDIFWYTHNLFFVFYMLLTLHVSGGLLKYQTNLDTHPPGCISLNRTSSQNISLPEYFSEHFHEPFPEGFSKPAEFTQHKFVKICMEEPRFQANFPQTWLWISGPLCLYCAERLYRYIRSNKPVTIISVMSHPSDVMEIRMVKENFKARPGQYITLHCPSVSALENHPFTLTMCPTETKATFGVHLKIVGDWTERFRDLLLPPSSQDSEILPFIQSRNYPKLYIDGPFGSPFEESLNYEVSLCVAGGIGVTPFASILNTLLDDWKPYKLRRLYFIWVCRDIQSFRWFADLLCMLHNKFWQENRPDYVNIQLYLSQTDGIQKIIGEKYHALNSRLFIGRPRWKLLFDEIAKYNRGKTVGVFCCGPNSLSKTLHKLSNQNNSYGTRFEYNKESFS
substance,measurement,setting,value
GKT771,Ki,[1],60 ± 6 nM
same,Ki,[2],4000 nM

# — publication PMC6599972, “Inhibition of host NOX1 blocks tumor growth and enhances checkpoint inhibitor–based immunotherapy” (Life Science Alliance, 2019)
